# Reference: US20060084172A1, “Method for producing stem cells with increased developmental potential” (Julius-Maximilians-Unversitat Wurzburg, priority 2001, published 2006)
# Key:
# Oct4 gene = assay: Oct4-gene specific RT-PCR after incubation of neural stem cells; type: cell-based, mouse; conditions: 2-day incubation of neural stem cells (NSC #417, NSC #125); 150-250 nanomolar Trichostatin A and/or 300-600 nanomolar 5-aza-2′ deoxycytidine; HPRT normalization
# Method: For investigating whether the incubation of adult neural stem cells of Example 1 with deacetylase inhibitors (e.g. Trichostatin A) and/or nucleotide analogs (e.g. 5-aza-2′ deoxycytidine), which prevent a methylation, influences the gene expression, the stem cells were incubated with one of these substances or a mixture of these substances. This was performed in Neurobasal medium, B27 supplement, 20-40 ng EGF, 20-40 ng FGF-2, 150-250 nanomolar Trichostatin A and/or 300-600 nanomolar 5-aza-2′ deoxycytidine for 2 or 4 days. Subsequently to the incubation, RNA was isolated from the cells, and cDNA was produced by means of the enzyme reverse transcriptase. By using gene-specific primers, the gene expression of the Oct4 gene was investigated. The Oct4 gene serves as an example of a development-specific regulator gene. It is only active in very early development stages (zygote, morula, blastula). Later, the expression is restricted to germ cells. The Oct4 gene is not transcribed in the adult organism outside the germ cells, thus also not in somatic stem cells. The Oct4 gene is thus only active in cells, which have a development potential larger than that of the somatic stem cells [see Pesce M, Anastassiedies K, Scholer H R (1999) Oct4: lessons of totipotency from embryonic stem cells. Cells Tissues Organs 165:144-152]. […] Under these conditions, no Oct4 expression was detected anymore. […]
# mouse blastocysts = assay: Injection of treated neural stem cells into blastocysts, Y chromosome-specific PCR of tissues of chimeric animals; type: in vivo; conditions: treated neural stem cells injected into blastocysts, animals examined at 4 weeks, FIG. 4b versus untreated FIG. 4a
# Text: In order to determine the plasticity of the employed somatic stem cell types, neural and hematopoietic stem cells of the Examples 1 and 2 were isolated and injected into mouse blastocysts (see FIG. 2). From the blastocyst develops the complete embryo and later the adult animal. By this method, the injected stem cells are subjected to all inductive processes, which take place during the development of the embryo. If the used hematopoietic or neural stem cells should have the capability to differentiate to all or many tissues or cell types of the adult animal, then descendants of the injected stem cells should be detectable for the developed animal in several different or all tissues and organs. If this detection is positive and the donor cells carry foreign, tissue-specific markers and perform foreign, tissue-specific functions, then the treatment of the somatic stem cells has led to an increased plasticity.
# In order to investigate the development potential of somatic stem cells treated according to Example 4, neural stem cells of Example 4 (from male animals) were washed and injected (20-40 pieces) into blastocysts, which were isolated from superovulated females after object pairing. […] Male donor cells, which originate from the injected neural stem cells (NSC), were detected by a Y chromosome-specific PCR reaction (YMT primer). […]
smiles,measurement,setting,value
CC(/C=C/C(=O)NO)=C\[C@@H](C)C(=O)c1ccc(N(C)C)cc1 [Trichostatin A],Oct4 gene expression (RT-PCR),Oct4 gene,reactivates the Oct4 gene
same,distribution spectrum of donor cells in tissues,mouse blastocysts,substantially wider distribution spectrum
